This is an account of results in ChEMBL document CHEMBL5370554, “Discovery of a first-in-class Aurora A covalent inhibitor for the treatment of triple negative breast cancer” (Eur J Med Chem, 2023).

Data set [1] has as its system MDA-MB-231. Put plainly: Induction of apoptosis in human MDA-MB-231 cells assessed as early apoptotic cells at 5 uM incubated for 24 hrs by Annexin V-FITC staining based flow cytometry (Rvb= 3.3%). In kind it is functional. For orientation: A flow cytometer gives signals particle by particle.
Data set [2] has as its system MDA-MB-231. Put plainly: Inhibition of […] in human MDA-MB-231 cells at 1 uM incubated for 14 days by crystal violet staining based colony formation assay (Rvb= 115+/-4%). Particulars: MDA-MB-231, 336 h, time 14 day. It counts as functional.
Data set [3] has as its system MDA-MB-231. Put plainly: Induction of cell cycle arrest in human MDA-MB-231 cells assessed as accumulation at G2/M phase at 1.25 to 5 uM incubated for 24 hrs by PI staining based flow cytometry. Particulars: dose 1.25-5 µM. It counts as functional.
Data set [4] is described as follows: Cytotoxicity against human L02 cells assessed as inhibition of cell proliferation incubated for 48 hrs by CCK-8 assay. It counts as toxicity, cell-based. In general terms: Tetrazolium dyes change colour on reduction, which living cells bring about.
In data set [5] the target is T1, Aurora kinase A (Homo sapiens) (UniProt O14965).
T1 sequence (whole entry): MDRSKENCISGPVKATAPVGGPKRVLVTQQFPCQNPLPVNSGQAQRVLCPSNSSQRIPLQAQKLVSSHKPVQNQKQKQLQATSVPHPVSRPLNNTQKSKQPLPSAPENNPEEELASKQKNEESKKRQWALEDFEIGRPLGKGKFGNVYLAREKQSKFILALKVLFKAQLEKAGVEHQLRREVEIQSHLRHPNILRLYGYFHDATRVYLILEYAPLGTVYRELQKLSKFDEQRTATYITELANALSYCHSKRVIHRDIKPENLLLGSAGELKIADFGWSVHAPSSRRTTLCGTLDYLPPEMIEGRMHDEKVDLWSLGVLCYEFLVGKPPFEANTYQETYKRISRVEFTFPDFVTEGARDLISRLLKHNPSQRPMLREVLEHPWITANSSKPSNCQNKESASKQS
Put plainly: Inhibition of Aurora A in human MDA-MB-231 cells assessed as decrease in Aurora A phosphorylation at Thr288 residue at 0.2 to 0.6 uM incubated for 1 hrs by Western blot analysis. Particulars: dose 0.2-0.6 µM. In kind it is cell-based. (In general: Immunoblotting shows a protein as a band on a membrane.)

The test system of another data set is HeLa. As to the kind of experiment: Antiproliferative activity against human HeLa cells assessed as inhibition of cell proliferation incubated for 48 hrs by CCK-8 assay. It counts as functional, cell-based.

The structures appear in SMILES notation.

Take `C=CC(=O)Nc1ccc(-c2nc(Nc3cc(C)[nH]n3)c3ccc(N4CCN(C)CC4)cc3n2)cc1`: the Activity in the data set on MDA-MB-231 [1] was 28.6%; in the data set on MDA-MB-231 [3] it was “Dose-Dependent Effect”. Also, in the data set on MDA-MB-231 [2], the inhibition (usually how much of the control response was suppressed) at 1 µM was found to be 13%. Further, the half-inhibitory concentration (IC50) (in general, the concentration that inhibits the measured activity by half) at 48 h in data set [4] worked out at 23.4 µM. The inhibition result in data set [5] is “Dose-Dependent Effect”. Moreover, the IC50 with HeLa came to 6.99 µM.
